The term IC50 denotes the concentration that inhibits the measured activity by half. A high value points to lower potency. The term Ki denotes a dissociation constant, usually derived from enzyme kinetics or from competition with a known ligand. Lower therefore signals tighter binding.

The values below come from ChEMBL document CHEMBL1151666, “Novel Zaragozic Acids from Leptodontidium elatius” (J Nat Prod, 1996).

For test [1], the target named is T1, Squalene synthase (Homo sapiens, UniProt P37268).
T1 sequence (P37268 whole entry): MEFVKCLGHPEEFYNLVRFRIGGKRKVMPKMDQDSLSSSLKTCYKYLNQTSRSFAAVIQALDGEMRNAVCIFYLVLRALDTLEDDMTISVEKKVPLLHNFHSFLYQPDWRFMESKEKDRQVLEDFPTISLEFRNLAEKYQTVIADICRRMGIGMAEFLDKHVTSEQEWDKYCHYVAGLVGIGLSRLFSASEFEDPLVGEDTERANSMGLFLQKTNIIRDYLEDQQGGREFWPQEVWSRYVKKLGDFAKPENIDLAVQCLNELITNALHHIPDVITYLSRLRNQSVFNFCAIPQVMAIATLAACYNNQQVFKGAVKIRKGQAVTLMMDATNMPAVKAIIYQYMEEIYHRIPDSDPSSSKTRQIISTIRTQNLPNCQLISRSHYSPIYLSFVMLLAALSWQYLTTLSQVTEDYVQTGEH
Briefly: Inhibition of squalene synthase.

Test [2] deals with T2, Squalene synthase (Rattus norvegicus, UniProt Q02769).
T2 sequence (Q02769 whole entry): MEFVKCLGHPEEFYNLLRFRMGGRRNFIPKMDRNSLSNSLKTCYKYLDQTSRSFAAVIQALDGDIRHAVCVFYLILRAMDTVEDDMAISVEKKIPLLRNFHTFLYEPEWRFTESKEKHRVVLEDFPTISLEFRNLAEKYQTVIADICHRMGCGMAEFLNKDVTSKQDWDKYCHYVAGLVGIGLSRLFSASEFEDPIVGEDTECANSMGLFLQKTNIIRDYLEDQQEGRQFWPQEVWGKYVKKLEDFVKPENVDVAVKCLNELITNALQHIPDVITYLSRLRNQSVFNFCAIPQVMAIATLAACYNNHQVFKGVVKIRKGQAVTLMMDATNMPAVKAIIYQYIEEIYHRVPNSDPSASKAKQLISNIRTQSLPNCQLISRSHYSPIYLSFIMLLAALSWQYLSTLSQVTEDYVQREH
Briefly: Inhibition of rat squalene synthase.

`CC(=O)O[C@H](CCC[C@]12O[C@H](C(=O)O)[C@@](O)(C(=O)O)[C@](C(=O)O)(O1)[C@H](OC(=O)CC/C=C/[C@H](C)CCCc1ccccc1)[C@H]2O)[C@H](C)Cc1ccccc1` [ZARAGOZIC ACID C] gave an IC50 against Squalene synthase [1] of 0.3 nM. The same molecule showed an inhibition constant Ki at Squalene synthase [2] of 0.045 nM.
At Squalene synthase [1], `C[C@H](/C=C/CCC(=O)O[C@@H]1[C@@H](O)[C@@]2(CC/C=C/[C@H](C)CCCc3ccccc3)O[C@H](C(=O)O)[C@@](O)(C(=O)O)[C@]1(C(=O)O)O2)CCCc1ccccc1` [ZARAGOZIC ACID E] returned an IC50 of 4 nM.
For `CCCCCCC[C@@H](CCC[C@]12O[C@H](C(=O)O)[C@@](O)(C(=O)O)[C@](C(=O)O)(O1)[C@H](OC(=O)CC/C=C/[C@@H](C)CCCc1ccccc1)[C@H]2O)OC(C)=O` [ZARAGOZIC ACID F], the IC50 on Squalene synthase [1] turned out to be 2 nM.
`C[C@@H](CCCC[C@]12O[C@H](C(=O)O)[C@@](O)(C(=O)O)[C@](C(=O)O)(O1)[C@H](OC(=O)CC/C=C/[C@@H](C)CCCc1ccccc1)[C@H]2O)Cc1ccccc1` gave an IC50 at Squalene synthase [1] of 0.2 nM.
